pEC50: −log10 of the molar value. Read-outs that look alike come from different tables or passages of the source.
Tests used:
F508del-CFTR = biological target: T1, F508del-CFTR (Homo sapiens, UniProt P13569, DEL508-508); test: Membrane potential optical (FLIPR) assay for F508del-CFTR modulators in NIH 3T3 cells; assay type: cell-based; details: for pEC50: assay A1
T1 construct: expressed in transfected cells
How it was run: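 NIH3T3 mouse fibroblasts stably expressing F508del, seeded on matrigel and cultured 18-24 h at 37 °C; for correction, cells were cultured with or without compound for 18-24 h. Cells were loaded with voltage-sensing dye, then compound was added in one step with a chloride gradient (chloride replaced by gluconate). Membrane potential was read by fluorescence.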

human PXR = biological target: T2, human PXR (Homo sapiens, UniProt O75469); test: PXR assay: PXR mediated CYP3A4 induction in DPX-2 cell line; assay type: cell-based; details: DPX-2 cells
T2 construct: host or cells: DPX-2 cell line (derived from HepG2)
T2 sequence (O75469 1-434): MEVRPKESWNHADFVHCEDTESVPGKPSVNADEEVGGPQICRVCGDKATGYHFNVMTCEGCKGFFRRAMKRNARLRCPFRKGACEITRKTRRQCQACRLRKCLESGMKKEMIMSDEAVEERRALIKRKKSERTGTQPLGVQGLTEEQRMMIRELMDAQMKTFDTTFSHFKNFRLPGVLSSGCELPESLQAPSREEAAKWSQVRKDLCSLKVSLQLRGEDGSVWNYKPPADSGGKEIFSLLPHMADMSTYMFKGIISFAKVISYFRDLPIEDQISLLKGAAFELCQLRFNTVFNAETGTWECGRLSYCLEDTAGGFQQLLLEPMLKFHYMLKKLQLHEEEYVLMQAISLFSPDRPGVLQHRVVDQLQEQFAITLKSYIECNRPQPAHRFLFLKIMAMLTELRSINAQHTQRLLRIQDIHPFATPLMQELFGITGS
How it was run: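 HepG2-derived DPX-2 cells stably carrying human PXR and a CYP3A4 promoter/enhancer–luciferase reporter; 11 doses from 0.1 to 60 μM for 48 h, rifampicin as positive control. Viability read by fluorescence, then luciferase luminescence; max fold induction over vehicle and EC50 reported.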

[1] = MDCK-Wild Type permeability, 96 well + 0.1% BSA; assay type: in vitro ADME; details: dog, MDCK, A-B direction, read-out: MDCK-Wild Type-Permeability 96 well + 0.1% BSA Papp compound (A-B)
Rat hepatocytes = test: Hepatocyte clearance, rat hepatocytes; assay type: in vitro ADME; details: percent unchanged
Rat IV and PO PK studies = assay type: in vivo, male Sprague-Dawley rats
Description: C. Experimental Protocol for Rat IV and PO PK Studies
The tested compound was administered to male Sprague-Dawley rats as a single nominal intravenous dose of 3.0 mg/kg as a solution in 10% NMP, 10% solution, 15% EtOH, 35% PEG400 and 30% D5W. The tested compound was also administered to male Sprague-Dawley rats at single nominal oral dose of 3 mg/kg as a solution in 5% NMP, 30% PEG400, 10% TPGS, 5% PVP-K30 at 5 mL/kg dose volume. Analyses of plasma and dose preparations were performed using LC/MS/MS.
Plasma concentration-time profiles of the tested compound in Sprague-Dawley rats at scheduled (nominal) sampling times were analyzed by noncompartmental pharmacokinetic methods using PK function within Watson LIMS software, Version 7.4.2 (Thermo Scientific Inc, Waltham, Mass.). AUC values were calculated using the linear trapezoidal rule.

[2] = system: F508del/F508del-HBE cells; test: Ussing chamber chloride transport experiment; assay type: cell-based
Description: Ussing chamber experiments were performed on polarized airway epithelial cells expressing F508del to further characterize the F508del modulators identified in the optical assays. Non-CF and CF airway epithelia were isolated from bronchial tissue, cultured as previously described (Galietta, L. J. V., Lantero, S., Gazzolo, A., Sacco, O., Romano, L., Rossi, G. A., & Zegarra-Moran, O. (1998) In Vitro Cell. Dev. Biol. 34, 478-481), and plated onto Costar® Snapwell™ filters that were precoated with NIH3T3-conditioned media. After four days the apical media was removed and the cells were grown at an air liquid interface for >14 days prior to use. […] CF-HBE were isolated from patients homozygous for F508del or compound heterozygous for F508del with an different disease causing mutation on the other allele.
HBE grown on Costar® Snapwell™ cell culture inserts were mounted in an Ussing chamber (Physiologic Instruments, Inc., San Diego, Calif.), and the transepithelial resistance and short-circuit current in the presence of a basolateral to apical Cl^− gradient (ISC) were measured using a voltage-clamp system (Department of Bioengineering, University of Iowa, Iowa). Briefly, HBE were examined under voltage-clamp recording conditions (Vhold=0 mV) at 37° C. […]

[3] = Metabolism of Compound 1 in vitro and in vivo
MDCK-Wild Type = MDCK-Wild Type permeability, 96 well + 0.1% BSA; assay type: in vitro ADME; details: A-B direction
[4] = NIH 3T3 cells expressing F508del, read-out: CFTRdF508 Cor 3T3 FLIPR 384 CFTRdF508 MP 3T3 770 EC50

T1 sequence (P13569 with tags, fused parts or gaps DEL508-508): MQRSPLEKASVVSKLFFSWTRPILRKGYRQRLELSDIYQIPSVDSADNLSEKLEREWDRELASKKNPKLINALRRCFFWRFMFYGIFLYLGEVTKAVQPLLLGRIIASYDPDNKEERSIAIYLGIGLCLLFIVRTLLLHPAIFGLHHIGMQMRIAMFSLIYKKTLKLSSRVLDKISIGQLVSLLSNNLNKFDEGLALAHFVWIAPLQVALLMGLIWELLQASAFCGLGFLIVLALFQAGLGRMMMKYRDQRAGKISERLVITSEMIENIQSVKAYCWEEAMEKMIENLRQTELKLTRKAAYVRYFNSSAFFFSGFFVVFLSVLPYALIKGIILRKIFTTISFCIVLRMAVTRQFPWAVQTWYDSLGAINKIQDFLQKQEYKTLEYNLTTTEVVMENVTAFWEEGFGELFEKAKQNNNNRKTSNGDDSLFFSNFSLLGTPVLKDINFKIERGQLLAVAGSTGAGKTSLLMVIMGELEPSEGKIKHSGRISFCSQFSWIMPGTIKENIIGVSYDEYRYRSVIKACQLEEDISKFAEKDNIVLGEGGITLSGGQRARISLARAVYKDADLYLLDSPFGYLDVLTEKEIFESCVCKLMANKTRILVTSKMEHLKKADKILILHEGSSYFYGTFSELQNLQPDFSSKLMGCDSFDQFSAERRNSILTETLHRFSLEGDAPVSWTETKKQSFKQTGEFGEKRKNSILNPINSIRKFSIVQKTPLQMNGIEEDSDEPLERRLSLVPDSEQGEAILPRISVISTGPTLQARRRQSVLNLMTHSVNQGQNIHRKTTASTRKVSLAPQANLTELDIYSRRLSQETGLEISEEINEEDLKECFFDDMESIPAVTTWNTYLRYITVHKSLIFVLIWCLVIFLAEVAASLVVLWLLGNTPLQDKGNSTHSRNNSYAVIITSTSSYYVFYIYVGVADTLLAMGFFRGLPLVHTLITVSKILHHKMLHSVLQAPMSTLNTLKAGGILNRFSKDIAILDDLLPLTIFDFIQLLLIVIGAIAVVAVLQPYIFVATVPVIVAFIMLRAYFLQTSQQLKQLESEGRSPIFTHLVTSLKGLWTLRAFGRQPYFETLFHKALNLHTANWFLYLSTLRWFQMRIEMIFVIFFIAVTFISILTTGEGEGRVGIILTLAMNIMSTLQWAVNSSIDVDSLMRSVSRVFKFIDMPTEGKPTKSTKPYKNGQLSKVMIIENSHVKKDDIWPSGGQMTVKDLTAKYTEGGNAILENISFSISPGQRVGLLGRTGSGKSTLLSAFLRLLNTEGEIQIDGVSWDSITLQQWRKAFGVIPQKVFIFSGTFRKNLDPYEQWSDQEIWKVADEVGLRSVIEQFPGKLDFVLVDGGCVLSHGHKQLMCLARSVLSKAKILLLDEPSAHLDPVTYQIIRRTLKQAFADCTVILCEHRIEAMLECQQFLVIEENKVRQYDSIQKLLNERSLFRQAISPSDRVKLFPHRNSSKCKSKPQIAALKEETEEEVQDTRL

| Emax (F508del-CFTR; NIH3T3, assay A1, read-out: % Efficacy relative to Compound II) | pEC50 (F508del-CFTR; [4]) | pEC50 (F508del-CFTR; read-out: EC50) | CYP3A4 Induction-PXR human PXR internal Max % Activity (human PXR) | Papp A→B [1] | Hepatocyte clearance-Rat Rat hepatocytes CL pct_unchanged (Rat hepatocytes) | RAT PLASMA-RAW IV-bolus CL_drg (Rat IV and PO PK studies; IV bolus, nominal 3.0 mg/kg) | RAT PLASMA-RAW PO % F_drg (Rat IV and PO PK studies; PO, nominal 3 mg/kg) | AUC(0-inf) (Rat IV and PO PK studies; male, Sprague-Dawley, plasma, PO, nominal 3 mg/kg, read-out: RAT PLASMA-RAW PO AUC (0-inf)_drg) | MDCK-Wild Type-Permeability 96 well + 0.1% BSA Papp compound (A-B) (MDCK-Wild Type) | metabolite identity [3] | SMILES | effect on chloride transport in combination with Compound II [2] | chloride transport ([2]; Compound 1 alone) | metabolism ([3]; in vitro and in vivo) |
| --- | --- | --- | --- | --- | --- | --- | --- | --- | --- | --- | --- | --- | --- | --- |
| ≥ 100% | 7.15 | > 5.52 | 2% | 4.5 ×10⁻⁶ cm/s | 66% | 1.6 mL/min/kg | 83% | 23500 ng·h/mL |  |  | Cc1nn(C)cc1S(=O)(=O)NC(=O)c1ccc(-n2ccc(OCC(C)(C)C(F)(F)F)n2)nc1N1C[C@@H](C)CC1(C)C [Compound 1, N-(1,3-dimethylpyrazol-4-yl)sulfonyl-6-[3-(3,3,3-trifluoro-2,2-dimethyl-propoxy)pyrazol-1-yl]-2-[(4S)-2,2,4-trimethylpyrrolidin-1-yl]pyridine-3-carboxamide] | additive to the effect of Compound II | enhanced chloride transport | metabolized both in vitro and in vivo, mostly by oxidative metabolism |
|  | 5.85 |  | 21% |  | 54% |  |  |  | 5.5 10E-6 cm/s |  | Cc1nn(C)cc1S(=O)(=O)NC(=O)c1ccc(-n2ccc(OC3CC3C(F)(F)F)n2)nc1N1C[C@@H](C)CC1(C)C (stereo partly drawn) [Compound 35, N-(1,3-dimethylpyrazol-4-yl)sulfonyl-6-[3-[2-(trifluoromethyl)cyclopropoxy]pyrazol-1-yl]-2-[(4S)-2,2,4-trimethylpyrrolidin-1-yl]pyridine-3-carboxamide] |  |  |  |
|  | 6.25 |  | 9% | 1.2 ×10⁻⁶ cm/s | 49% |  |  |  |  | metabolites of Compound 1 | Cc1nn(C)cc1S(=O)(=O)NC(=O)c1ccc(-n2ccc(OCC(C)(CO)C(F)(F)F)n2)nc1N1C[C@@H](C)CC1(C)C (stereo partly drawn) [Compound 45, N-(1,3-dimethylpyrazol-4-yl)sulfonyl-6-[3-[3,3,3-trifluoro-2-(hydroxymethyl)-2-methyl-propoxy]pyrazol-1-yl]-2-[(4S)-2,2,4-trimethylpyrrolidin-1-yl]pyridine-3-carboxamide] |  |  |  |

From patent publication US10793547B2, “Modulator of the cystic fibrosis transmembrane conductance regulator, pharmaceutical compositions, methods of treatment, and process for making the modulator” (Vertex Pharmaceuticals Incorporated, priority 2016, dated 2020)
